Laboratory results as given in patent US4373106A, “Sulfamoyl-substituted phenethylamine derivatives and process of producing them” (Yamanouchi Pharmaceutical Co., Ltd., priority 1980, dated 1983).
Where two headings read alike, the source gives them in different places.

Columns and labels:
α-adrenergic = assay: α-Adrenergic blocking action: antagonism of the hypertensive response to phenylephrine in anesthetized, pentolinium-treated rats; format: in vivo; settings: Rattus norvegicus, iv, read-out: α-adrenergic blocking ED50
Description: A. α-Adrenergic blocking action:
The blood pressure was measured in the rats anesthetized with urethane and treated with pentolinium.

[1] = tested on: spontaneously hypertensive rats; assay: Antihypertensive effects in spontaneously hypertensive rats, oral, tail cuff method; format: in vivo; settings: systolic blood pressure higher than 150 mmHg
Description: Oral administration: The systolic blood pressure was measured indirectly from the tail cuff method using a programmed electrosphygmanometer (Narco Bio-Systems Inc., PE-300) on spontaneously hypertensive rats having a systolic blood pressure higher than 150 mmHg, the results being shown in Table II.

α- and β-adrenergic = settings: as disclosed in British Pat. No. 2,006,772; cited from earlier work
[2] = rats anesthetized with urethane, treated with pentolinium, phenylephrine 10 μg/Kg i.v.

For `COc1ccccc1OCCNCCc1ccc(O)c(S(N)(=O)=O)c1` [Example 15, 2-Hydroxy-5-{2-[2-(2-methoxyphenoxy)ethylamino]ethyl}benzenesulfonamide], the ED50 (α-adrenergic; [2]) was 1.3 µg/kg and the “Change in systolic blood pressure at stated dose p.o.” value (“Change … at stated dose p.o.” below) ([1]; 10 mg/Kg p.o.) was -54 ± 6.2 mmHg.
For `CNS(=O)(=O)c1cc(CC(C)NCCOc2ccccc2OC)ccc1OC.Cl` (centres unmarked) [Example 4, 2-methoxy-5-{2-[2-(2-methoxyphenoxy)ethylamino]-2-methylethyl}-N-methylbenzenesulfonamide hydrochloride], the ED50 (α-adrenergic) was 0.35 µg/kg.
`COc1ccccc1OCCNC(C)Cc1ccc(OC)c(S(=O)(=O)N(C)C)c1.Cl` (centres unmarked) [Example 5, 2-Methoxy-5-{2-[2-(2-methoxyphenoxy)ethylamino]-2-methylethyl}-N,N-dimethylbenzenesulfonamide hydrochloride] gave an ED50 (α-adrenergic) of 0.26 µg/kg.
For `COc1ccccc1OCCNC(C)Cc1ccc(OC)c(S(N)(=O)=O)c1.Cl` (centres unmarked) [Example 16, 2-Methoxy-5-{2-[2-(2-methoxyphenoxy)ethylamino]-2-methylethyl}benzenesulfonamide hydrochloride], the ED50 (α-adrenergic) was 0.8 µg/kg and the “Change … at stated dose p.o.” value ([1]; 10 mg/Kg p.o.) was -71 ± 11.1 mmHg.
For `COc1ccccc1OCCNC(C)Cc1ccc(C)c(S(N)(=O)=O)c1.Cl` (centres unmarked) [Example 25, 5-{2-[2-(2-Methoxyphenoxy)ethylamino]-2-methylethyl}-2-methylbenzenesulfonamide hydrochloride], the ED50 (α-adrenergic) was 1.2 µg/kg and the “Change … at stated dose p.o.” value ([1]; 10 mg/Kg p.o.) was -46 ± 3.6 mmHg.
With `Cc1ccc(N(CC2=NCCN2)c2cccc(O)c2)cc1` [Phentolamine, phentolamine, reference compound] the ED50 (α-adrenergic; [2]) was 61 µg/kg, the “Change … at stated dose p.o.” value ([1]; 10 mg/Kg p.o.) was “+7.8 ± 5.0 mmHg” and the “Change … at stated dose p.o.” value ([1]; 100 mg/Kg p.o.) was -70 ± 10.1 mmHg.
For `COc1ccccc1OCCNCCc1ccc(C)c(S(N)(=O)=O)c1.Cl` [Example 11, 5-{2-[2-(2-Methoxyphenoxy)ethylamino]ethyl}-2-methylbenzenesulfonamide hydrochloride], the ED50 (α-adrenergic; [2]) was 12 µg/kg and the “Change … at stated dose p.o.” value ([1]; 30 mg/Kg p.o.) was -50 ± 4.7 mmHg.
In the case of `CCOc1ccccc1OCCNCCc1ccc(C)c(S(N)(=O)=O)c1.Cl` [Example 12, 5-{2-[2-(2-Ethoxyphenoxy)ethylamino]ethyl}-2-methylbenzenesulfonamide hydrochloride], the ED50 (α-adrenergic; [2]) was 7.3 µg/kg and the “Change … at stated dose p.o.” value ([1]; 10 mg/Kg p.o.) was -48 ± 2.0 mmHg.
With `COc1ccccc1OCCNCCc1ccc(OC)c(S(N)(=O)=O)c1.Cl` [Example 10, 2-methoxy-5-{2-[2-(2-methoxyphenoxy)ethylamino]ethyl}benzenesulfonamide hydrochloride] the ED50 (α-adrenergic; [2]) was 5.9 µg/kg and the “Change … at stated dose p.o.” value ([1]; 10 mg/Kg p.o.) was -57 ± 5.6 mmHg.
With `CCC(Cc1ccc(C)c(S(N)(=O)=O)c1)NCCOc1ccccc1OC.Cl` (centres unmarked) [Example 26, 5-{2-[2-(2-Methoxyphenoxy)ethylamino]-2-ethylethyl}-2-methylbenzenesulfonamide hydrochloride] the ED50 (α-adrenergic; [2]) was 4 µg/kg and the “Change … at stated dose p.o.” value ([1]; 10 mg/Kg p.o.) was -46 ± 4.3 mmHg.
In the case of `COc1ccccc1OCCNCC(O)c1ccc(C)c(S(N)(=O)=O)c1` (centres unmarked) [Compound A, 5-{1-hydroxy-2-[2-(2-methoxyphenoxy)ethylamino]ethyl}-2-methylbenzenesulfonamide, reference compound], the ED50 (α-adrenergic; [2]) is given as 34 µg/kg, the “Change … at stated dose p.o.” value ([1]; 10 mg/Kg p.o.) is given as -35 ± 6.4 mmHg and the “α- and β-adrenergic blocking actions” value (α- and β-adrenergic) is given as “strong α- and β-adrenergic blocking actions”.
With `CCOc1ccccc1OCCNC(C)Cc1ccc(OC)c(S(N)(=O)=O)c1.Cl` (centres unmarked) [Example 20, 5-{2-[2-(2-Ethoxyphenoxy)ethylamino]-2-methylethyl}-2-methoxybenzenesulfonamide hydrochloride] the “Change … at stated dose p.o.” value ([1]; 3 mg/Kg p.o.) was -57 ± 4.2 mmHg.
